{"source": "patent US8822206B2", "about": "“Device for high-throughput stimulation, immunostaining, and visualization of single cells” (The Johns Hopkins University, priority 2005, dated 2014)", "tested_on": "NIH3T3 mouse fibroblasts", "test": "Cell stimulation and anti-p65 immunofluorescence staining in the microfluidic device", "assay_type": "cell-based", "settings": "NIH3T3 mouse fibroblasts in device and on control slides; 10 ng/ml mouse TNF-alpha in media, 10 minutes stimulation", "from_the_text": "The device was fabricated as described in Example 1. The device was filled with sterile 0.1% gelatin with all of the valves open through an inlet port 11 to coat the parallel fluid channels to promote cell adhesion. Valves were primed with filtered, distilled water. Alternatively, filling may be done with the ports closed as trapped air can be pushed out of the gas-permeable PDMS with hydrostatic pressure. The device was flushed with […] the coating agent. Well-separated NIH3T3 mouse fibroblasts at a concentration of about 9 million cells per ml were introduced into the parallel fluid channels through an inlet port and the device was transferred to a standard 5% CO2, 37° C. cell culture incubator for 3-4 hours to allow the cells to adhere to the glass bottom of the parallel fluid channels.\nUsing the multiplexer to control flow through the reaction units, a selection of valves were closed to allow for exposure of only a portion of the cells to a stimulant. A syringe containing a solution of 10 ng/ml of mouse TNF-alpha in media was attached to an inlet port, and cells were stimulated, or not, for 10 minutes. […] After secondary antibody staining and washing with DPBS, cells were overlaid with mounting media or other antifade agent to minimize photobleaching, and imaged using fluorescence microscopy. […]", "data": [{"substance": "TNF-alpha", "values": [{"measurement": "localization of p65 (anti-p65 immunofluorescence)", "result": "localization of p65 to the nucleus"}]}]}
